Biological target: T1, Adrenergic receptor alpha-1 (Rattus norvegicus, UniProt P15823+P23944+P43140)
T1 sequence (P15823 whole entry): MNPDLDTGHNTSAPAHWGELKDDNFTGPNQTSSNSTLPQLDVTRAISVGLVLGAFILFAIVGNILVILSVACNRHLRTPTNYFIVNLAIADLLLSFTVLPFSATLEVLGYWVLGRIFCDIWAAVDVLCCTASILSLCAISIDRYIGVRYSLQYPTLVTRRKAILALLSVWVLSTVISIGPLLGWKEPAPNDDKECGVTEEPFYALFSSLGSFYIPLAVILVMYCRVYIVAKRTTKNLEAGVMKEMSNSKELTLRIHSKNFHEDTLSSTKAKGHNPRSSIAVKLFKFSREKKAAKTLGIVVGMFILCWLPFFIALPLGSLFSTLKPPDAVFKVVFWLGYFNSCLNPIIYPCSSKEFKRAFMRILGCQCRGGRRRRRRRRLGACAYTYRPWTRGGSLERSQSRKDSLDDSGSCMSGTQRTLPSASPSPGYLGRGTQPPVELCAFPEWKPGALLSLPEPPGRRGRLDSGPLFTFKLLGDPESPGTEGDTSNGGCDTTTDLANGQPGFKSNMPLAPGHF
T1 sequence (P23944 whole entry): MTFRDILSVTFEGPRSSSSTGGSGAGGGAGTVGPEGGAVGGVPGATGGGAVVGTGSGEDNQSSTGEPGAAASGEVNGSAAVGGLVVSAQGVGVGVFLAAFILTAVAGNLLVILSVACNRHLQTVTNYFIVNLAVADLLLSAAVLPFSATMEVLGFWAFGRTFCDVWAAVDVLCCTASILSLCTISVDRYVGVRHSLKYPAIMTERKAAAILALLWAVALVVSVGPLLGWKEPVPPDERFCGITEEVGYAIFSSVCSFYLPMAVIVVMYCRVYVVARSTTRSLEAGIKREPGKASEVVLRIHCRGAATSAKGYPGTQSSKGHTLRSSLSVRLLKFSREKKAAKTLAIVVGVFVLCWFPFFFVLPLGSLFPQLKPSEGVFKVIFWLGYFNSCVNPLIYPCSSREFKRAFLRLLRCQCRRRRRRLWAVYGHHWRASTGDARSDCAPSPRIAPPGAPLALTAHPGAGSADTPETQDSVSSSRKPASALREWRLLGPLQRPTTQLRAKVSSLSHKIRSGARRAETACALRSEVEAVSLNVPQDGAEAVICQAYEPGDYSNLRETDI
T1 sequence (P43140 whole entry): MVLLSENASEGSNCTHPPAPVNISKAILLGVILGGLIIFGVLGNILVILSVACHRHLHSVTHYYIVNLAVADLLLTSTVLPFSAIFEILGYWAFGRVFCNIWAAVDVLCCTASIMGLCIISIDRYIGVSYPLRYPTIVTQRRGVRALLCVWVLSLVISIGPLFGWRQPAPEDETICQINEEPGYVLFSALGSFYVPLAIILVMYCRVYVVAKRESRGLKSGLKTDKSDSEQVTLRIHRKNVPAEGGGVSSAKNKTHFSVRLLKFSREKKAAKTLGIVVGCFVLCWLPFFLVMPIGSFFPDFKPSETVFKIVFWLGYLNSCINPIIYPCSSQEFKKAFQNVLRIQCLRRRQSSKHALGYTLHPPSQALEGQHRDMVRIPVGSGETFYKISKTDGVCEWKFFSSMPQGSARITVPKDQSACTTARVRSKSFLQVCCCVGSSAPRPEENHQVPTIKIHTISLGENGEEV
Assay: Binding affinity was measured at the Alpha-1 adrenergic receptor using [3H]prazosin as radioligand in rat brain cortex membrane.
Assay type: cell membranes

IC50 [nM] | Compound
270 | COc1cccc(C(=O)NCCN2CCN(c3ccc(Cl)cc3)CC2)c1

Biological target: T2, D(4) dopamine receptor (Homo sapiens, UniProt P21917)
T2 sequence (P21917 whole entry): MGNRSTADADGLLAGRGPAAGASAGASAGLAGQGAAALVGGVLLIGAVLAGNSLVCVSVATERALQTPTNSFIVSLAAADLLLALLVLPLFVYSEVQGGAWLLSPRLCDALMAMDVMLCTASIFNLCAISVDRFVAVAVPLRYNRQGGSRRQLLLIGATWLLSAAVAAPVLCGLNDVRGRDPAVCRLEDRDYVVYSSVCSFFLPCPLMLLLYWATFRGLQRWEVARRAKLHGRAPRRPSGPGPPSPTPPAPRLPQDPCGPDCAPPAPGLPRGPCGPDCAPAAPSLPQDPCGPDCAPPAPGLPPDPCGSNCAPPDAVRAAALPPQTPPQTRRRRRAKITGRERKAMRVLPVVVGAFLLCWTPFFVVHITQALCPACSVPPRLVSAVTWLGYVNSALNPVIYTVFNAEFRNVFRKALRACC
Assay: In vitro binding affinity was measured at the cloned human Dopamine receptor D4.2 using [3H]YM-09151-2 as radioligand.

Ki [nM] | Compound
3 | COc1ccccc1N1CCN(CCNC2=Nc3ccccc3OC2)CC1
0.7 | COc1ccccc1N1CCN(Cc2ccn(-c3ccccc3)c2)CC1

Biological target: T2, D(4) dopamine receptor
Assay: In vitro binding affinity at human cloned Dopamine receptor D4.2 by [3H]YM-09151-2 displacement.

IC50 [nM] | Compound
7.8 | COc1ccc(OC)c(C(=O)NCCN2CCN(c3ccccc3OC)CC2)c1
30 | COc1cccc(C(=O)NCCN2CCN(Cc3ccccc3OC)CC2)c1
740 | COc1cccc(-c2csc(CN3CCN(c4ccccc4OC)CC3)n2)c1
70 | COc1cccc(C(=O)NCCN2CCN(Cc3ccc(Cl)cc3)CC2)c1
470 | COc1ccc2c(c1)CC(NC(=O)CN1CCN(c3ccccc3OC)CC1)CC2 (stereo not given)
850 | COc1ccccc1N1CCN(CC(=O)NC2CCc3c(cccc3OC)C2)CC1 (stereo not given)
3.1 | COc1cccc(C(=O)CCCN2CCN(c3ccccc3OC)CC2)c1
4 | COc1ccccc1C(=O)NCCN1CCN(c2ccccc2OC)CC1
120 | COc1ccccc1N1CCN(CCC(=O)NC2CCc3c(cccc3OC)C2)CC1 (stereo not given)
280 | COc1ccc2c(c1)C(CCCN1CCN(c3ccccc3OC)CC1)CCC2 (stereo not given)
0.057 | COc1cccc(C(=O)NCCN2CCN(c3ccc(Cl)cc3)CC2)c1

Biological target: T3, 5-hydroxytryptamine receptor 1A (Rattus norvegicus, UniProt P19327)
T3 sequence (P19327 whole entry): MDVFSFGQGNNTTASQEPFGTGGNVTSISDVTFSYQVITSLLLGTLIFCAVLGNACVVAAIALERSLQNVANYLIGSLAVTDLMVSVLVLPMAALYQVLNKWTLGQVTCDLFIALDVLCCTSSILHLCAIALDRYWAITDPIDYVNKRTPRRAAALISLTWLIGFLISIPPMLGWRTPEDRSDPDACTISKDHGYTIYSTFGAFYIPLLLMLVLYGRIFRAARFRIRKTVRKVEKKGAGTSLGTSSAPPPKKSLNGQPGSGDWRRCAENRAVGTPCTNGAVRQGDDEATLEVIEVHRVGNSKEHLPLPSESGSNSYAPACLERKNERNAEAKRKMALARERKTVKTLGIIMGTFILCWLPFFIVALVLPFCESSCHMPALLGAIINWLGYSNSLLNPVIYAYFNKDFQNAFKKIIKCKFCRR
Assay: Binding affinity was measured at the serotonin 5-hydroxytryptamine 1A receptor using [3H]8-OH-DPAT as radioligand in rat hippocampal membrane.
Assay type: cell membranes, Hippocampus

IC50 [nM] | Compound
220 | COc1cccc(C(=O)NCCN2CCN(c3ccc(Cl)cc3)CC2)c1

Source: ChEMBL document CHEMBL1131412, “N-[2-[4-(4-Chlorophenyl)piperazin-1-yl]ethyl]-3-methoxybenzamide: a potent and selective dopamine D4 ligand” (J Med Chem, 1998)
